IC50 and IC50 cytotoxicity (DAPI nuclear signal decrease) data for 26 compounds are collected here from PubChem BioAssay AID651630 (Sanford-Burnham Center for Chemical Genomics, 2012).

The source made the active and inactive calls.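 How the source made its calls: active means lipid-stain IC50 at or below a set limit, with nuclear-stain toxicity IC50 at least five times higher; inactive means the rest.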 A value given as a limit tells only on which side of the number the result lay.

One may read the IC50 as the concentration at which inhibition is half-maximal.

In one assay the test system is TAG. Description: TAG lipid buildup inhibition with viability readout – cell-based, panel, Nile Red and DAPI fluorescence, H9c2, dose response (AID 651630).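 Further: cells exposed to compound overnight before fixation and staining.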 The conditions noted are these: H9c2 cells, Nile Red TAG fluorescence, oleic acid.
Another assay deals with DAPI. The assay is described as above. The conditions noted are these: H9c2 cells, DAPI nuclear fluorescence (cytotoxicity counter-readout), oleic acid.

Consider `Cc1nc2c(ccc3nc(NC(=O)Cc4cccc5ccccc45)sc32)s1`, for which the IC50 was 13.3 µM with TAG (mean of runs), 11.5 µM with TAG (run 1) and 15.1 µM in the assay on TAG (run 2). Further, the values for the IC50 cytotoxicity (DAPI nuclear signal decrease) with DAPI (mean of runs), in the assay with DAPI (run 1) and in the assay with DAPI (run 2) were > 25 µM (inactive), > 25 µM and > 25 µM, respectively.

For `COc1ccc(Nc2cc(=O)oc3ccccc23)cc1`, the IC50 in the assay on TAG (mean of runs) is > 25 µM (inactive); in the assay on TAG (run 1) it was > 25 µM; in the assay on TAG (run 2), > 25 µM. Also, the IC50 cytotoxicity (DAPI nuclear signal decrease) with DAPI (mean of runs) is > 25 µM (inactive); with DAPI (run 1) it was > 25 µM; in the assay on DAPI (run 2) it was > 25 µM.

As to `CC(C)(C)NCCC(O)c1cc(C(F)(F)F)nc2c(C(F)(F)F)cccc12` (stereo not drawn), the IC50 in the assay with TAG (mean of runs) is 11.2 µM; with TAG (run 1), 11.5 µM; in the assay with TAG (run 2), 11 µM. In addition, the values for the IC50 cytotoxicity (DAPI nuclear signal decrease) in the assay with DAPI (mean of runs), in the assay on DAPI (run 1) and in the assay with DAPI (run 2) were > 25 µM (inactive), > 25 µM and > 25 µM, respectively.

For the compound `COc1ccc(-c2nc(NC(=O)C3CCN(c4nc5ccccc5o4)CC3)sc2C)cc1`, the IC50 in the assay with TAG (mean of runs) was 13 µM; in the assay on TAG (run 1) it was 15.6 µM; in the assay with TAG (run 2) it was 10.4 µM. Besides, the IC50 cytotoxicity (DAPI nuclear signal decrease) in the assay on DAPI (mean of runs) was > 25 µM (inactive); with DAPI (run 1), > 25 µM; in the assay on DAPI (run 2), > 25 µM.

With `COc1ccc(CNC(=O)C2CCN(c3nc(-c4ccccc4)nc4c3CCC4)CC2)cc1`, the values for the IC50 in the assay on TAG (mean of runs), in the assay on TAG (run 1) and in the assay with TAG (run 2) were 13.8 µM, 11.5 µM and 16.1 µM, respectively. The IC50 cytotoxicity (DAPI nuclear signal decrease) with DAPI (mean of runs) was > 25 µM (inactive); with DAPI (run 1), > 25 µM; in the assay on DAPI (run 2) it was > 25 µM.

For the compound `COc1ccccc1Nc1nnc(SCC(=O)Nc2nc(-c3ccc(F)cc3)cs2)s1`, the IC50 is > 25 µM (inactive) in the assay with TAG (mean of runs), > 25 µM in the assay on TAG (run 1) and > 25 µM in the assay on TAG (run 2). For the same compound, the IC50 cytotoxicity (DAPI nuclear signal decrease) is > 25 µM (inactive) with DAPI (mean of runs), > 25 µM in the assay with DAPI (run 1) and > 25 µM in the assay on DAPI (run 2).

For `Cn1cc(CN2CCC(C(=O)NC(c3ccc(F)cc3)c3ccc4ccccc4n3)CC2)c2ccccc21` (stereo not drawn), the IC50 in the assay with TAG (mean of runs) was 10.3 µM; in the assay with TAG (run 1), 9.38 µM; in the assay with TAG (run 2), 11.2 µM. For the same compound, the IC50 cytotoxicity (DAPI nuclear signal decrease) in the assay on DAPI (mean of runs) is 13.7 µM (inactive); in the assay with DAPI (run 1) it was 14.5 µM; in the assay with DAPI (run 2), 13 µM.

For `CCOc1ccccc1NC(=O)C1CCN(C(=O)NCc2ccccc2)CC1`, the IC50 in the assay on TAG (mean of runs) was > 25 µM (inactive); in the assay with TAG (run 1), > 25 µM; in the assay on TAG (run 2), > 25 µM. Further, the values for the IC50 cytotoxicity (DAPI nuclear signal decrease) in the assay with DAPI (mean of runs), in the assay on DAPI (run 1) and with DAPI (run 2) were > 25 µM (inactive), > 25 µM and > 25 µM, respectively.

`CCC(C)(C)NC(=O)C(c1ccc(C)cc1)N(Cc1ccco1)C(=O)CCC(=O)Nc1nccs1` (stereo not drawn): the IC50 was 6.82 µM in the assay on TAG (mean of runs), 4.82 µM with TAG (run 1) and 8.81 µM in the assay on TAG (run 2). The IC50 cytotoxicity (DAPI nuclear signal decrease) is > 25 µM (inactive) in the assay on DAPI (mean of runs), > 25 µM with DAPI (run 1) and > 25 µM in the assay with DAPI (run 2).

In the case of `Fc1cccc(Nc2nc(-c3ccncc3)nc3ccccc23)c1`, the IC50 is > 25 µM (inactive) in the assay on TAG (mean of runs), > 25 µM with TAG (run 1) and > 25 µM in the assay with TAG (run 2). In addition, the figures for the IC50 cytotoxicity (DAPI nuclear signal decrease) with DAPI (mean of runs), in the assay on DAPI (run 1) and in the assay with DAPI (run 2) were > 25 µM (inactive), > 25 µM and > 25 µM, respectively.

For `CCOc1ccc(Cc2nnc(SCC(=O)Nc3ccccc3)n(N)c2=O)cc1`, the concentration for half-maximal inhibition (IC50) was 5.04 µM with TAG (mean of runs), 5.36 µM in the assay with TAG (run 1) and 4.71 µM in the assay on TAG (run 2). Also, the results for the IC50 cytotoxicity (DAPI nuclear signal decrease) in the assay on DAPI (mean of runs), in the assay on DAPI (run 1) and in the assay with DAPI (run 2) were > 25 µM (inactive), > 25 µM and > 25 µM, respectively.

With `O=c1cc(N2CCN(c3cccc(Cl)c3)CC2)[nH]c(=O)n1C1CCCCC1`, the IC50 in the assay with TAG (mean of runs) was 3.47 µM; in the assay on TAG (run 1) it was 5.5 µM; in the assay with TAG (run 2), 1.44 µM. Besides, the IC50 cytotoxicity (DAPI nuclear signal decrease) was 18.2 µM in the assay with DAPI (run 1) and > 25 µM with DAPI (run 2).

On to `CCOc1ccc(S(=O)(=O)NCc2ccccn2)cc1NC(=O)c1ccccc1`, for which the values for the IC50 with TAG (mean of runs), with TAG (run 1) and in the assay on TAG (run 2) were > 25 µM (inactive), > 25 µM and > 25 µM, respectively. In addition, the IC50 cytotoxicity (DAPI nuclear signal decrease) in the assay with DAPI (mean of runs) is > 25 µM (inactive); with DAPI (run 1), > 25 µM; in the assay with DAPI (run 2), > 25 µM.

As for `CC(C)N(C(=O)[C@H]1C[C@H](CC(=O)NCc2cccc(C(F)(F)F)c2)C(=O)N2CCc3c([nH]c4ccc(Cl)cc34)[C@]12C)C(C)C`, the IC50 with TAG (mean of runs) is 10.6 µM; in the assay on TAG (run 1) it was 9.86 µM; in the assay with TAG (run 2) it was 11.4 µM. Besides, the values for the IC50 cytotoxicity (DAPI nuclear signal decrease) with DAPI (mean of runs), with DAPI (run 1) and with DAPI (run 2) were > 25 µM (inactive), > 25 µM and > 25 µM, respectively.

With `COCCN(Cc1ccccc1)C(=O)C1CCN(C(=O)Nc2ccccc2)CC1`, the values for the IC50 with TAG (mean of runs), with TAG (run 1) and in the assay on TAG (run 2) were > 25 µM (inactive), > 25 µM and > 25 µM, respectively. In addition, the IC50 cytotoxicity (DAPI nuclear signal decrease) was > 25 µM (inactive) in the assay on DAPI (mean of runs), > 25 µM in the assay with DAPI (run 1) and > 25 µM in the assay on DAPI (run 2).

Consider `O=C(c1cc(-c2ccncc2)nc2c(Cl)cccc12)N1CCN(c2ccccc2F)CC1`, for which the figures for the concentration for half-maximal inhibition (IC50) in the assay on TAG (mean of runs), in the assay with TAG (run 1) and in the assay with TAG (run 2) were 5.67 µM, 6.89 µM and 4.44 µM, respectively. In addition, the IC50 cytotoxicity (DAPI nuclear signal decrease) was > 25 µM (inactive) in the assay on DAPI (mean of runs), > 25 µM with DAPI (run 1) and > 25 µM in the assay with DAPI (run 2).

For `COc1ccc(C2=CC(c3ccc4c(c3)OCO4)c3c(c4ccccc4oc3=O)O2)cc1OC` (stereo not drawn), the IC50 was 18.8 µM (inactive) in the assay with TAG (mean of runs), 20.6 µM in the assay on TAG (run 1) and 17 µM in the assay with TAG (run 2). Further, the IC50 cytotoxicity (DAPI nuclear signal decrease) with DAPI (mean of runs) is > 25 µM (inactive); in the assay with DAPI (run 1), > 25 µM; in the assay with DAPI (run 2) it was > 25 µM.

On to `Cc1onc(NC(=O)c2ccc([N+](=O)[O-])o2)c1Br`, for which the IC50 in the assay on TAG (mean of runs) is > 25 µM (inactive); in the assay on TAG (run 1) it was > 25 µM; with TAG (run 2) it was > 25 µM. The IC50 cytotoxicity (DAPI nuclear signal decrease) in the assay with DAPI (mean of runs) was > 25 µM (inactive); with DAPI (run 1), > 25 µM; in the assay with DAPI (run 2), > 25 µM.

As to `CN(C)CCNC(=O)c1cccc2ccc(-c3ccc(-c4ccccc4)cc3)nc12`, the half-inhibitory concentration (IC50) is 12.5 µM in the assay on TAG (mean of runs), 10.6 µM in the assay with TAG (run 1) and 14.4 µM with TAG (run 2). In addition, the IC50 cytotoxicity (DAPI nuclear signal decrease) in the assay with DAPI (mean of runs) is > 25 µM (inactive); with DAPI (run 1), > 25 µM; in the assay on DAPI (run 2) it was > 25 µM.

`Cc1ccc(C(=O)NCCN2C3=NC[C@H](C(C)C)N3C[C@H]2Cc2ccc(O)cc2)cc1Br`: the IC50 with TAG (mean of runs) is 16.8 µM (inactive); in the assay with TAG (run 1), 16.9 µM; in the assay with TAG (run 2), 16.7 µM. Further, the results for the IC50 cytotoxicity (DAPI nuclear signal decrease) in the assay with DAPI (mean of runs), in the assay with DAPI (run 1) and in the assay on DAPI (run 2) were > 25 µM (inactive), > 25 µM and > 25 µM, respectively.

Consider `O=C(/C=C/c1ccc(OCCCF)cc1)NCc1ccc(Cl)c(Cl)c1`, for which the IC50 was > 25 µM in the assay with TAG (run 1) and 21.3 µM with TAG (run 2). For the same compound, the IC50 cytotoxicity (DAPI nuclear signal decrease) in the assay on DAPI (mean of runs) is > 25 µM (inactive); with DAPI (run 1), > 25 µM; in the assay on DAPI (run 2), > 25 µM.

Turning to `COc1cc(OC)c2c(-c3ccccc3)cc(=O)oc2c1C(CCN1CCCCC1)c1ccc2c(c1)OCO2` (stereo not drawn), the results for the IC50 with TAG (mean of runs), with TAG (run 1) and with TAG (run 2) were 22.9 µM (inactive), 20.9 µM and 24.9 µM, respectively. Also, the values for the IC50 cytotoxicity (DAPI nuclear signal decrease) with DAPI (mean of runs), in the assay on DAPI (run 1) and with DAPI (run 2) were > 25 µM (inactive), > 25 µM and > 25 µM, respectively.

As to `c1cc(C2CCCCC2)ccc1Oc1nc(N2CCOCC2)nc(N2CCOCC2)n1`, the IC50 was > 25 µM (inactive) with TAG (mean of runs), > 25 µM with TAG (run 1) and > 25 µM in the assay with TAG (run 2). Moreover, the IC50 cytotoxicity (DAPI nuclear signal decrease) in the assay with DAPI (mean of runs) is > 25 µM (inactive); with DAPI (run 1), > 25 µM; in the assay on DAPI (run 2), > 25 µM.

For the compound `COc1cc2c(c(OC)c1OC)-c1ccc(O)cc1C(NC(C)=O)CC2` (stereo not drawn), the IC50 with TAG (mean of runs) is > 25 µM (inactive); in the assay with TAG (run 1) it was > 25 µM; with TAG (run 2), > 25 µM. In addition, the IC50 cytotoxicity (DAPI nuclear signal decrease) in the assay with DAPI (mean of runs) was > 25 µM (inactive); in the assay with DAPI (run 1), > 25 µM; in the assay with DAPI (run 2), > 25 µM.

Turning to `COc1ccc(C(=O)Nc2ccc(Cl)cc2C(=O)NCc2ccco2)cc1`, the IC50 was 16.9 µM (inactive) in the assay with TAG (mean of runs), 16.2 µM with TAG (run 1) and 17.7 µM in the assay with TAG (run 2). For the same compound, the IC50 cytotoxicity (DAPI nuclear signal decrease) in the assay with DAPI (mean of runs) was > 25 µM (inactive); in the assay on DAPI (run 1), > 25 µM; in the assay on DAPI (run 2), > 25 µM.

For `Cc1ccc2nc3n(c(=O)c2c1)-c1cc2ccccc2cc1C(=O)NC3Cc1ccc(O)cc1` (stereo not drawn), the IC50 in the assay on TAG (run 1) was 24.9 µM; in the assay with TAG (run 2) it was > 25 µM. The IC50 cytotoxicity (DAPI nuclear signal decrease) with DAPI (mean of runs) is > 25 µM (inactive); in the assay with DAPI (run 1), > 25 µM; in the assay on DAPI (run 2), > 25 µM.
